Measured values reported in PMC8672851 (Science translational medicine, 2021).

Key:
[1] = test system: primary patient AML blasts; assay: colony-forming assay of primary patient AML samples in methylcellulose; format: cell-based, human; conditions: leukemia cells from patients with AML
MLL-AF9 cells = assay: MLL-AF9 syngeneic AML mouse model; format: in vivo; conditions: for leukemic disease burden: peripheral blood / bone marrow
[2] = test system: patient-derived primary AML cells; assay: orthotopic patient-derived xenograft; format: in vivo, mouse; conditions: PDX; for leukemic disease burden: hCD45+ cells in peripheral blood or bone marrow
[3] = format: in vivo; conditions: mice
[4] = test system: panel of human cancer cell lines; assay: viability across a panel of human cancer cell lines; format: cell-based; conditions: 131 human cancer cell lines, 16 cancer types; three days
MV4-11-luc cells = conditions: MV4-11 xenograft
[5] = phase I trial; ref NCT02243917; cited from earlier work
MV4-11 cells [6] = assay: cellular viability of MV4-11 AML cell line; format: cell-based, human
[7] = test system: poly-ubiquitinated proteins, GRP78, spliced XBP-1, ATF-4; format: cell-based, human
γH2AX = assay: FACS analysis of intracellular gammaH2AX in AML cells; format: cell-based, human
P-ATM (S1981) = assay: ATM phosphorylation upon etoposide DSB induction; format: cell-based, human; conditions: upon etoposide DSBs induction
MV4-11 cells [8] = assay: combination with doxorubicin in MV4-11 cell line; format: cell-based, human; conditions: MV4-11 AML cell line
[9] = preclinical pharmacokinetics in multiple species; format: in vivo; conditions: preclinical studies in multiple species
human cone PDE6 (PDE6C) = conditions: in vitro biochemical assays; relative to CB-5083
[10] = in vivo
RG37-DR-GFP cells = assay: homologous recombination reporter; format: cell-based; conditions: 0.4 μM; 48 hours post-transfection with I-SceI
GC92-NHEJ-CD4 cells = assay: non-homologous end-joining reporter; format: cell-based; conditions: 0.4 μM; 48 hours post-transfection with I-SceI
[11] = test system: MV4-11 and UT-7 AML cell lines; assay: Annexin V/propidium iodide staining and flow cytometry; format: cell-based, human; conditions: 0.2 μM for 8 days
[12] = test system: UT-7 cells expressing VCP (A530T); assay: growth inhibition of UT-7 cells expressing NMS-873-resistant VCP; format: cell-based, human; conditions: four days
[13] = cited from earlier work

Compound: Cc1cc2c(C(N)=O)cccc2n1-c1nc2c(c(NCc3ccccc3)n1)COCC2 [CB-5083]
- colony formation of AML blasts [1]: impaired the capacity of AML blasts to form colonies
- survival (MLL-AF9 cells): prolonged mice survival
- leukemic disease burden (MLL-AF9 cells): decreased disease burden
- leukemic disease burden [2]: substantially decreased disease burden
- tolerability (weight, blood counts) [3]: no major weight loss or hematopoietic toxicity
- sensitivity of AML cell lines versus other cancer subtypes [4]: more sensitive
- disease burden (bioluminescence) (MV4-11-luc cells): decreased disease burden
- survival (MV4-11-luc cells): prolonged mice survival
- myelosuppression in patients [5]: not myelosuppressive

Compound: Cc1cc2c(C(N)=O)cccc2n1-c1nc2c(c(NCc3ccccc3)n1)CCCN2 [CB-5339]
- IC50 (MV4-11 cells [6]): 0.186 µM
- concentration at which ATF-4 accumulated ([7]; AML context): ≥ 0.8 µM
- concentration at which ER stress marker GRP78 accumulated ([7]; AML context): ≥ 0.4 µM
- concentration at which spliced XBP-1 accumulated ([7]; AML context): ≥ 1.6 µM
- concentration inducing polyubiquitin protein accumulation ([7]; AML context, dose-dependent): ≥ 0.4 µM
- effect on γH2AX accumulation (γH2AX; 0.2 μM): increased γH2AX accumulation
- effect on ATM phosphorylation (P-ATM (S1981)): impaired ATM phosphorylation
- interaction with doxorubicin (MV4-11 cells [8]): synergized with doxorubicin
- survival (MLL-AF9 cells): prolonged survival
- leukemic disease burden (MLL-AF9 cells): decreased circulating leukemic cells
- survival ([2]; 90 mg/kg): prolonged mice survival
- leukemic disease burden [2]: decreased bone marrow leukemic infiltration
- tolerability (weight, blood counts) [3]: well tolerated
- bioavailability compared to CB-5083 [9]: higher bioavailability
- clearance compared to CB-5083 [9]: lower clearance
- fold less active on human cone PDE6 (PDE6C) compared to CB-5083 (human cone PDE6 (PDE6C)): 15 fold
- times lower Cmax in rat retina compared to CB-5083 [10]: 31 times

Compound: Cc1cc(OCc2nnc(SC3CCCC3)n2-c2cccnc2)ccc1-c1ccc(S(C)(=O)=O)cc1 [NMS-873]
- concentration at which poly-ubiquitinated proteins started to accumulate ([7]; AML cells): 5 µM
- effect on γH2AX (γH2AX; MV4-11 and UT-7, 0.4 μM, 72 hours): increased γH2AX
- effect on homologous recombination (HR) DSB repair (RG37-DR-GFP cells): impairment of HR
- effect on non-homologous end-joining (NHEJ) (GC92-NHEJ-CD4 cells): did not impair NHEJ
- colony formation of AML blasts [1]: impaired the capacity of AML blasts to form colonies
- cell death / apoptosis [11]: induced Annexin-positive cell death
- effect of VCP (A530T) expression on compound-induced loss of viability [12]: rescued the loss of viability
- pharmacological and bioavailability properties [13]: lacks appropriate pharmacological and bioavailability properties
